Test results as given in the NIST ThermoML archive (doi:10.1021/je049895b).

Test: xn = mol fraction of the nth substance listed
Conditions: 101.33 kPa, Liquid; for viscosity: Capillary tube (Ostwald / Ubbelohde) method

C1CCCC1 [cyclopentane] + CCOC(=O)OCC
Conditions	mass density [kg/m3]	speed of sound [m/s]	viscosity [mPa·s]
293.15 K, x2 = 0	744.43	1232	0.438
293.15 K, x2 = 0.0491	757.21	1219	0.44
293.15 K, x2 = 0.0999	770.43	1209	0.445
293.15 K, x2 = 0.1898	793.45	1196	0.462
293.15 K, x2 = 0.2872	817.88	1186	0.486
293.15 K, x2 = 0.3894	842.77	1180	0.518
293.15 K, x2 = 0.5009	868.92	1178	0.559
293.15 K, x2 = 0.6023	891.92	1179	0.601
293.15 K, x2 = 0.7021	913.9	1181	0.646
293.15 K, x2 = 0.8053	935.69	1186	0.696
293.15 K, x2 = 0.9032	955.62	1191	0.748
293.15 K, x2 = 0.952	965.36	1194	0.778
298.15 K, x2 = 0	739.47	1206	0.415
298.15 K, x2 = 0.0491	752.18	1194	0.416
298.15 K, x2 = 0.0999	765.34	1184	0.421
298.15 K, x2 = 0.1898	788.24	1172	0.437
298.15 K, x2 = 0.2872	812.58	1163	0.459
298.15 K, x2 = 0.3894	837.37	1157	0.489
298.15 K, x2 = 0.5009	863.47	1156	0.527
298.15 K, x2 = 0.6023	886.43	1157	0.564
298.15 K, x2 = 0.7021	908.38	1160	0.606
298.15 K, x2 = 0.8053	930.14	1165	0.654
298.15 K, x2 = 0.9032	950.04	1170	0.699
298.15 K, x2 = 0.952	959.78	1174	0.726
303.15 K, x2 = 0	734.47	1180	0.394
303.15 K, x2 = 0.0491	747.11	1169	0.396
303.15 K, x2 = 0.0999	760.19	1159	0.399
303.15 K, x2 = 0.1898	782.99	1147	0.414
303.15 K, x2 = 0.2872	807.23	1139	0.435
303.15 K, x2 = 0.3894	831.95	1134	0.461
303.15 K, x2 = 0.5009	857.97	1133	0.496
303.15 K, x2 = 0.6023	880.91	1135	0.532
303.15 K, x2 = 0.7021	902.82	1138	0.57
303.15 K, x2 = 0.8053	924.56	1144	0.615
303.15 K, x2 = 0.9032	944.44	1150	0.655
303.15 K, x2 = 0.952	954.16	1153	0.68
308.15 K, x2 = 0	729.42	1154	0.374
308.15 K, x2 = 0.0491	741.99	1144	0.375
308.15 K, x2 = 0.0999	755	1134	0.379
308.15 K, x2 = 0.1898	777.7	1123	0.393
308.15 K, x2 = 0.2872	801.84	1115	0.412
308.15 K, x2 = 0.3894	826.49	1112	0.436
308.15 K, x2 = 0.5009	852.45	1111	0.47
308.15 K, x2 = 0.6023	875.35	1113	0.502
308.15 K, x2 = 0.7021	897.23	1117	0.537
308.15 K, x2 = 0.8053	918.94	1123	0.578
308.15 K, x2 = 0.9032	938.8	1129	0.616
308.15 K, x2 = 0.952	948.52	1133	0.638
313.15 K, x2 = 0	724.32	1129	0.355
313.15 K, x2 = 0.0491	736.82	1119	0.356
313.15 K, x2 = 0.0999	749.76	1110	0.36
313.15 K, x2 = 0.1898	772.35	1099	0.373
313.15 K, x2 = 0.2872	796.39	1092	0.391
313.15 K, x2 = 0.3894	820.95	1089	0.414
313.15 K, x2 = 0.5009	846.9	1089	0.444
313.15 K, x2 = 0.6023	869.75	1091	0.475
313.15 K, x2 = 0.7021	891.61	1096	0.508
313.15 K, x2 = 0.8053	913.29	1102	0.545
313.15 K, x2 = 0.9032	933.14	1109	0.58
313.15 K, x2 = 0.952	942.85	1112	0.6

C1CCCC1 [cyclopentane] + COC(=O)OC
Conditions	mass density [kg/m3]	speed of sound [m/s]	viscosity [mPa·s]
293.15 K, x2 = 0	744.43	1232	0.438
293.15 K, x2 = 0.0453	755.75	1219	0.429
293.15 K, x2 = 0.0871	766.47	1209	0.419
293.15 K, x2 = 0.1847	792.72	1192	0.417
293.15 K, x2 = 0.2915	823.38	1180	0.421
293.15 K, x2 = 0.3937	854.33	1174	0.432
293.15 K, x2 = 0.4904	884.96	1172	0.449
293.15 K, x2 = 0.5988	920.84	1174	0.472
293.15 K, x2 = 0.6963	954.64	1180	0.497
293.15 K, x2 = 0.8033	993.39	1190	0.531
293.15 K, x2 = 0.9028	1031.4	1204	0.573
293.15 K, x2 = 0.9532	1051.09	1212	0.601
298.15 K, x2 = 0	739.47	1206	0.415
298.15 K, x2 = 0.0453	750.69	1193	0.406
298.15 K, x2 = 0.0871	761.31	1184	0.397
298.15 K, x2 = 0.1847	787.29	1168	0.396
298.15 K, x2 = 0.2915	817.76	1156	0.398
298.15 K, x2 = 0.3937	848.47	1150	0.408
298.15 K, x2 = 0.4904	878.98	1148	0.422
298.15 K, x2 = 0.5988	914.7	1151	0.444
298.15 K, x2 = 0.6963	948.41	1157	0.468
298.15 K, x2 = 0.8033	987.01	1168	0.5
298.15 K, x2 = 0.9028	1024.85	1182	0.538
298.15 K, x2 = 0.9532	1044.57	1190	0.565
303.15 K, x2 = 0	734.47	1180	0.394
303.15 K, x2 = 0.0453	745.58	1168	0.385
303.15 K, x2 = 0.0871	756.09	1158	0.377
303.15 K, x2 = 0.1847	781.98	1143	0.374
303.15 K, x2 = 0.2915	812.07	1131	0.377
303.15 K, x2 = 0.3937	842.65	1125	0.386
303.15 K, x2 = 0.4904	872.96	1124	0.4
303.15 K, x2 = 0.5988	908.54	1127	0.419
303.15 K, x2 = 0.6963	942.13	1134	0.441
303.15 K, x2 = 0.8033	980.64	1145	0.472
303.15 K, x2 = 0.9028	1018.17	1160	0.507
303.15 K, x2 = 0.9532	1038.01	1168	0.528
308.15 K, x2 = 0	729.42	1154	0.374
308.15 K, x2 = 0.0453	740.41	1142	0.366
308.15 K, x2 = 0.0871	750.83	1133	0.358
308.15 K, x2 = 0.1847	776.38	1118	0.355
308.15 K, x2 = 0.2915	806.36	1107	0.357
308.15 K, x2 = 0.3937	836.73	1102	0.366
308.15 K, x2 = 0.4904	866.91	1101	0.379
308.15 K, x2 = 0.5988	902.34	1105	0.397
308.15 K, x2 = 0.6963	935.82	1111	0.418
308.15 K, x2 = 0.8033	974.2	1123	0.446
308.15 K, x2 = 0.9028	1011.88	1138	0.478
308.15 K, x2 = 0.9532	1031.41	1146	0.501
313.15 K, x2 = 0	724.32	1129	0.355
313.15 K, x2 = 0.0453	735.2	1117	0.348
313.15 K, x2 = 0.0871	745.51	1108	0.341
313.15 K, x2 = 0.1847	770.82	1093	0.338
313.15 K, x2 = 0.2915	800.54	1083	0.338
313.15 K, x2 = 0.3937	830.73	1078	0.346
313.15 K, x2 = 0.4904	860.7	1078	0.358
313.15 K, x2 = 0.5988	896.1	1082	0.377
313.15 K, x2 = 0.6963	929.45	1089	0.397
313.15 K, x2 = 0.8033	967.7	1101	0.424
313.15 K, x2 = 0.9028	1005.28	1116	0.454
313.15 K, x2 = 0.9532	1024.79	1125	0.472

CCOC(=O)OCC [diethyl carbonate] + CC1CCCCC1
Conditions	speed of sound, 293.15 K [m/s]	speed of sound, 298.15 K [m/s]	speed of sound, 303.15 K [m/s]	speed of sound, 308.15 K [m/s]	speed of sound, 313.15 K [m/s]	viscosity, 293.15 K [mPa·s]	viscosity, 298.15 K [mPa·s]	viscosity, 303.15 K [mPa·s]	viscosity, 308.15 K [mPa·s]	viscosity, 313.15 K [mPa·s]
x1 = 0.0473	1229	1207	1185	1164	1142	0.709	0.662	0.621	0.583	0.548
x1 = 0.0978	1222	1201	1179	1157	1136	0.692	0.647	0.607	0.57	0.537
x1 = 0.1985	1211	1189	1168	1146	1125	0.678	0.633	0.593	0.558	0.525
x1 = 0.2968	1203	1181	1160	1138	1117	0.67	0.627	0.588	0.553	0.521
x1 = 0.3924	1196	1175	1154	1132	1111	0.672	0.628	0.589	0.554	0.522
x1 = 0.4993	1192	1171	1149	1128	1107	0.68	0.635	0.596	0.561	0.529
x1 = 0.5999	1189	1168	1147	1126	1105	0.695	0.649	0.609	0.572	0.539
x1 = 0.6985	1189	1168	1147	1126	1106	0.709	0.663	0.622	0.584	0.55
x1 = 0.7988	1191	1170	1149	1128	1108	0.732	0.684	0.642	0.603	0.568
x1 = 0.8996	1194	1173	1152	1132	1112	0.762	0.711	0.666	0.625	0.588
x1 = 0.9509	1196	1175	1155	1134	1114	0.787	0.735	0.687	0.645	0.607
x1 = 1	1198	1177	1157	1136	1116	0.809	0.75	0.702	0.658	0.618
